# Experimental data reported in PMC12782889, “A GmNRF5a–GmCERK1–GmCAK1 module mediates chitin/chitosan‐triggered immune response in soybean” (Journal of Integrative Plant Biology, 2025).
# System: phosphorylated MPK6/3/4 (P42/44) in soybean leaf discs
# Test: MAPK phosphorylation immunoblot in soybean leaf discs
# Type: cell-based, soybean (Glycine max)
# Conditions: soybean leaf discs at 5 min; anti-phospho P42/44 immunoblot; vs control dH2O
# Experimental: To measure the oxidation burst, leaf discs (Ø 0.5 cm) collected from 2-week-old soybean (cultivar Williams) were floated overnight in 200 μL sterile H2O in a 96-well plate. The H2O was replaced with 200 μL reaction buffer containing luminol/peroxidase ([…] luminol, 10 mg/mL peroxidase) and chitooligosaccharides treatments (50 mg/L). flg22 was used as a positive control. The luminescence was measured using a GLOMAX96 microplate luminometer (Promega, Madison, WI, USA). The experiments for MAPK activation were carried out as described previously ([[…] et al., 2014]). The MAPK activation was determined by immunoblots with anti-phospho-p44/42 MAPK antibody (#4370; Cell Signaling, Boston, MA, USA).
compound,measurement,value
"N[C@H]1[C@H](O[C@H]2[C@H](O)[C@@H](N)[C@H](O[C@H]3[C@H](O)[C@@H](N)[C@H](O[C@H]4[C@H](O)[C@@H](N)[C@H](O[C@H]5[C@H](O)[C@@H](N)[C@H](O[C@H]6[C@H](O)[C@@H](N)C(O)O[C@@H]6CO)O[C@@H]5CO)O[C@@H]4CO)O[C@@H]3CO)O[C@@H]2CO)O[C@H](CO)[C@@H](O)[C@@H]1O (stereo partly shown) [CSOS (dp6), chitosan oligosaccharide]",MAPK phosphorylation,can induce MAPK activity
